Measured values taken from patent US20060003016A1, “Therapeutic method for endolymphatic hydrops associated diseases” (priority 2004, published 2006).
Where two headings read alike, the source gives them in different places.

What was measured:
[1] = test system: patients with Meniere's disease and endolymphatic hydrops associated diseases; assay: Clinical course of vertigo, aural fullness, tinnitus and hearing in clinical cases; type: in vivo, patient
Source text: Therapeutic method of our invention is always performed after general examinations and standard laboratory examinations, such as blood pressure, plasma electrolytes, and urine osmolality. After consideration of body weight, age, sex, and life style, we directed the patients to take adequate water (see below) every day in combination with short-term application with isosorbite®. During the initial stage of the water intake method, recommended volume of water intake for adult male, weighing 60 kg, is calculated as 1.8-2.1 l per day according to the following formula (F 1). […] They seem to be nervous and live under the very strong psychological pressure.
The present invention is explained in detail by mentioning clinical cases.

[2] = test system: patients with Meniere's disease and endolymphatic hydrops associated diseases; settings: for hearing level: case 4, right ear
Source text: In the present case who could be followed up for more than 24 months after treatment with water intake, the therapeutic effect was judged by using the criteria of AAO-HNS (1995)^14), 15). Proviso that in an examination on changes of the hearing, although the criteria in the four-frequency pure-tone averages (PTA) of AAO-HNS (1995)^14) adopted mean values of the hearing levels consisting of 500 Hz, 1000 Hz, 2000 Hz and 3000 Hz, in our case, the value of 4000 Hz was used in stead of that of 3000 Hz.
In each figure, a horizontal axis indicates frequency (Hz) and a vertical axis indicates hearing level. […] A graph in the upper position indicates better hearing level.

[3] = case 1, water intake 2 lit./day continued, up to March 2004

Compound: O [water intake, water]
- right hearing [1, 3]: within normal range
- rotatory vertigo [1, 3]: no rotatory vertigo was noted
- rotatory vertigo ([1]; case 2, water intake 1.5 lit./day from Feb. 21, 2003 in addition to isosorbide 21 g/dose and difenidol hydrochloride 25 mg/dose on demand): remitted after May 3, 2003
- resound or aural fullness (in the right ear) ([1]; case 2, water intake 1.5 lit./day in addition to isosorbide and difenidol hydrochloride on demand): remitted after Aug. 18, 2003
- hearing level ([1]; case 2, water intake 1.5 lit./day in addition to isosorbide and difenidol hydrochloride on demand, to February 2004): maintained within normal range
- hearing ([1]; case 3, water intake, up to January 2004): maintained within normal range
- rotatory vertigo ([1]; case 3, water intake, up to January 2004, except one attack Mar. 16, 2001): no rotatory vertigo was recognized
- hearing of the right low tone ([1]; case 4, water intake 1.5 lit./day, October 2003 to January 2004): maintained improved state
- rotatory vertigo ([1]; case 5, water intake 1.5 lit./day): could not be recognized after Oct. 24, 2002
- high frequency sensorineural hearing loss of the left ear ([1]; case 5, water intake 1.5 lit./day plus isosorbide 63 g t.d.s. and adenosine triphosphate 300 mg t.d.s for 2 weeks): improved in Oct. 24, 2002
- low frequency sensorineural hearing loss of the left ear ([1]; case 5, water intake 1.5 lit./day plus isosorbide and adenosine triphosphate for 2 weeks): improved from Nov. 29, 2002
- left hearing compared with right hearing ([1]; case 5, water intake 1.5 lit./day, from Jul. 18, 2003): became equal level to the right hearing
- left ear tinnitus ([1]; case 5, water intake 1.5 lit./day, to January 2004): gradually remitted
- rotatory vertiginous attack accompanied by tinnitus ([1]; case 6, water intake with isosorbide and difenidol hydrochloride on demand, after Dec. 21, 2001 until February 2004): no rotary vertiginous attack
- low frequency sensorineural hearing loss of the left ear ([1]; case 7, water intake 300 ml before going to sleep in addition to steroid, VB12 and PGE1): improved
- left hearing ([1]; case 7, water intake continued (1.5 lit./day after September 2002), until now): maintained the improved state
- right hearing level lower as compared with the left hearing level in all frequency range ([1]; case 8, water intake, at present, 2 -25 dB at initial examination): 5 -15 dB
- rotatory vertigo ([1]; case 8, water intake, during the progress after the initial examination): No rotatory vertigo could be recognized
- outcome of most of patients with Meniere's disease ([1]; water intake method in combination with short-term isosorbide): improved without re-attack for 1-2 years
- hearing level after treatment ([2]; case 1, right ear, 125 Hz, Aug. 29, 2003, water intake 2 lit./day, before 45 dB): 0 dB
- hearing level after treatment ([2]; case 1, right ear, 250 Hz, Aug. 29, 2003, water intake 2 lit./day, before 45 dB): 5 dB
- hearing level after treatment ([2]; case 1, right ear, 500 Hz, Aug. 29, 2003, water intake 2 lit./day, before 45 dB): 15 dB
- hearing level after treatment ([2]; case 1, right ear, 1000 Hz, Aug. 29, 2003, water intake 2 lit./day, before 50 dB): 15 dB
- hearing level after treatment ([2]; case 1, right ear, 2000 Hz, Aug. 29, 2003, water intake 2 lit./day, before 35 dB): 15 dB
- hearing level after treatment ([2]; case 1, right ear, 4000 Hz, Aug. 29, 2003, water intake 2 lit./day, before 10 dB): 10 dB
- hearing level after treatment ([2]; case 1, right ear, 8000 Hz, Aug. 29, 2003, water intake 2 lit./day, before 15 dB): 25 dB
- hearing level after treatment, average (500-4000 Hz) ([2]; case 1, right ear, Aug. 29, 2003, water intake 2 lit./day, before 35 dB): 13.75 dB
- hearing level after treatment ([2]; case 3, left ear, 125 Hz, Jun. 7, 2002, poorest level 18-24 months after treatment, water intake, before 40 dB): 25 dB
- hearing level after treatment ([2]; case 3, left ear, 250 Hz, Jun. 7, 2002, poorest level 18-24 months after treatment, water intake, before 25 dB): 20 dB
- hearing level after treatment ([2]; case 3, left ear, 500 Hz, Jun. 7, 2002, poorest level 18-24 months after treatment, water intake, before 25 dB): 15 dB
- hearing level after treatment ([2]; case 3, left ear, 1000 Hz, Jun. 7, 2002, poorest level 18-24 months after treatment, water intake, before 15 dB): 5 dB
- hearing level after treatment ([2]; case 3, left ear, 2000 Hz, Jun. 7, 2002, poorest level 18-24 months after treatment, water intake, before 10 dB): 5 dB
- hearing level after treatment ([2]; case 3, left ear, 4000 Hz, Jun. 7, 2002, poorest level 18-24 months after treatment, water intake, before 45 dB): 5 dB
- hearing level after treatment ([2]; case 3, left ear, 8000 Hz, Jun. 7, 2002, poorest level 18-24 months after treatment, water intake, before 80 dB): 15 dB
- hearing level after treatment, average (500-4000 Hz) ([2]; case 3, left ear, Jun. 7, 2002, poorest level 18-24 months after treatment, water intake, before 23.75 dB): 7.5 dB
- hearing improved as compared with before the treatment (four-frequency PTA) ([2]; case 3, left ear, water intake): 16.25 dB
- category of change of hearing, AAO-HNS (1995) criteria ([2]; case 3, water intake): improved
- hearing level ([2]; 125 Hz, Aug. 2003, water intake 1.5 lit./day): 25 dB
- hearing level ([2]; 125 Hz, Dec. 2003, water intake 1.5 lit./day): 25 dB
- hearing level ([2]; 125 Hz, Jan. 2004, water intake 1.5 lit./day): 25 dB
- hearing level ([2]; 125 Hz, Jul. 2003, water intake 1.5 lit./day): 50 dB
- hearing level ([2]; 125 Hz, Jun. 2003, water intake 1.5 lit./day from Jun. 20, 2003): 30 dB
- hearing level ([2]; 125 Hz, Nov. 2003, water intake 1.5 lit./day): 25 dB
- hearing level ([2]; 125 Hz, Oct. 2003, water intake 1.5 lit./day): 30 dB
- hearing level ([2]; 125 Hz, Sep. 2003, water intake 1.5 lit./day): 30 dB
- hearing level ([2]; 250 Hz, Aug. 2003, water intake 1.5 lit./day): 25 dB
- hearing level ([2]; 250 Hz, Dec. 2003, water intake 1.5 lit./day): 25 dB
- hearing level ([2]; 250 Hz, Jan. 2004, water intake 1.5 lit./day): 25 dB
- hearing level ([2]; 250 Hz, Jul. 2003, water intake 1.5 lit./day): 45 dB
- hearing level ([2]; 250 Hz, Jun. 2003, water intake 1.5 lit./day from Jun. 20, 2003): 35 dB
- hearing level ([2]; 250 Hz, Nov. 2003, water intake 1.5 lit./day): 20 dB
- hearing level ([2]; 250 Hz, Oct. 2003, water intake 1.5 lit./day): 30 dB
- hearing level ([2]; 250 Hz, Sep. 2003, water intake 1.5 lit./day): 40 dB
- hearing level ([2]; 500 Hz, Aug. 2003, water intake 1.5 lit./day): 25 dB
- hearing level ([2]; 500 Hz, Dec. 2003, water intake 1.5 lit./day): 15 dB
- hearing level ([2]; 500 Hz, Jan. 2004, water intake 1.5 lit./day): 20 dB
- hearing level ([2]; 500 Hz, Jul. 2003, water intake 1.5 lit./day): 45 dB
- hearing level ([2]; 500 Hz, Jun. 2003, water intake 1.5 lit./day from Jun. 20, 2003): 40 dB
- hearing level ([2]; 500 Hz, Nov. 2003, water intake 1.5 lit./day): 20 dB
- hearing level ([2]; 500 Hz, Oct. 2003, water intake 1.5 lit./day): 25 dB
- hearing level ([2]; 500 Hz, Sep. 2003, water intake 1.5 lit./day): 40 dB
- hearing level ([2]; 1000 Hz, Aug. 2003, water intake 1.5 lit./day): 30 dB
- hearing level ([2]; 1000 Hz, Dec. 2003, water intake 1.5 lit./day): 25 dB
- hearing level ([2]; 1000 Hz, Jan. 2004, water intake 1.5 lit./day): 25 dB
- hearing level ([2]; 1000 Hz, Jul. 2003, water intake 1.5 lit./day): 50 dB
